{"source": "PubChem BioAssay AID1259409", "about": "(Chemical Carcinogenesis Research Information System (CCRIS), 2018)", "origin": "cited, not measured here", "tested_on": "rodent chemically induced tumor inhibition, incidence and multiplicity", "assay": "CCRIS tumor inhibitor studies", "conditions": "Carcinogen: DIETHYLNITROSAMINE, 55-18-5, N-METHYL-N-NITROSOUREA, 684-93-5, N-BUTYL-N-(4-HYDROXYBUTYL)NITROSAMINE, 3817-11-6, DIMETHY, Carcinogen: DIETHYLNITROSAMINE, 55-18-5, N-METHYL-N-NITROSOUREA, 684-93-5, N-BUTYL-N-(4-HYDROXYBUTYL)NITROSAMINE, 3817-11-6, DIMETHY, Dose [Inhibitor]: 0, Route [Inhibitor]: ORAL, Species: RAT, Strain/Sex: F344/MALE, Dose [Carcinogen]: 100 MG/KG BW DEN ONCE FOLLOWED BY 20 MG/KG BW MNU 4 TIMES AND 0.05% BBN IN DRINKING WATER DURING FIRST 2 WK THEN 40 MG/K, Promoter: NONE USED", "data": [{"smiles": "CCOC1=C(O)C(=O)O[C@@H]1[C@@H](O)CO", "values": [{"measurement": "tumour outcome (control, treated, inhibition, significance)", "setting": "1% IN THE DIET FOR 24 WK BEGINNING 1 DAY POST CARCINOGEN TREATMENT (STUDY DURATION: 28 WK), Target Tissue: Type of Lesion: URINARY BLADDER: PAPILLOMA", "result": "7%, 7%, 0%, not significant"}, {"measurement": "tumour outcome (control, treated, inhibition, significance)", "setting": "1% IN THE DIET FOR 30 D BEGINNING 1 DAY PRIOR TO CARCINOGEN TREATMENT (STUDY DURATION: 28 WK), Target Tissue: Type of Lesion: LARGE INTESTINE: ADENOMA", "result": "27%, 33%, -22%, not significant"}, {"measurement": "tumour outcome (control, treated, inhibition, significance)", "setting": "1% IN THE DIET FOR 30 D BEGINNING 1 DAY PRIOR TO CARCINOGEN TREATMENT (STUDY DURATION: 28 WK), Target Tissue: Type of Lesion: LARGE INTESTINE: CARCINOMA", "result": "7%, 40%, -471%, not significant"}, {"measurement": "tumour outcome (control, treated, inhibition, significance)", "setting": "1% IN THE DIET FOR 30 D BEGINNING 1 DAY PRIOR TO CARCINOGEN TREATMENT (STUDY DURATION: 28 WK), Target Tissue: Type of Lesion: SMALL INTESTINE: ADENOMA", "result": "33%, 7%, 79%, not significant"}, {"measurement": "tumour outcome (control, treated, inhibition, significance)", "setting": "1% IN THE DIET FOR 30 D BEGINNING 1 DAY PRIOR TO CARCINOGEN TREATMENT (STUDY DURATION: 28 WK), Target Tissue: Type of Lesion: SMALL INTESTINE: CARCINOMA", "result": "7%, 7%, 0%, not significant"}, {"measurement": "tumour outcome (control, treated, inhibition, significance)", "setting": "1% IN THE DIET FOR 30 D BEGINNING 1 DAY PRIOR TO CARCINOGEN TREATMENT (STUDY DURATION: 28 WK), Target Tissue: Type of Lesion: THYROID: CARCINOMA", "result": "7%, 0%, 100%, not significant"}, {"measurement": "tumour outcome (control, treated, inhibition, significance)", "setting": "1% IN THE DIET FOR 30 DAYS BEGINNING 1 DAY PRIOR TO CARCINOGEN TREATMENT (STUDY DURATION: 28 WK), Target Tissue: Type of Lesion: URINARY BLADDER: CARCINOMA", "result": "7%, 7%, 0%, not significant"}, {"measurement": "tumour outcome (control, treated, inhibition, significance)", "setting": "1% IN THE DRINKING WATER FOR 24 WK BEGINNING 1 DAY POST CARCINOGEN TREATMENT (STUDY DURATION: 28 WK), Target Tissue: Type of Lesion: SMALL INTESTINE: CARCINOMA", "result": "7%, 0%, 100%, not significant"}]}]}
